Columns and labels:
[1] = tested on: Lewis lung carcinoma: 3LL; assay: Tumor volume in mice bearing Lewis lung carcinoma 3LL (Example 9); type: in vivo, mouse; conditions: Example 9-1: ip 0.5 mg/10 mL/kg once, without CY; days 3, 6, 9; FIG. 9
Experimental: (1) Preparation of Cancer-Bearing Mice Suspensions of Lewis lung cancer cell lines (Lewis lung carcinoma: 3LL, obtained from JCRB cell banks) were subcutaneously administered to the ventral region of five male C57 BL/6J mice aged 6 weeks so that the cancer cell dose per animal was 2.5×10^5 cells per 200 μL. Two weeks after dosing, tumors were excised from one of the mice and washed on dishes with PBS (−). Next, the washed tumor was made into a finely divided tumor fragment of about 2 mm square, the tumor fragment was transferred to a 50 mL tube, 5 mL of collagenase solution was added, and the mixture was warmed at 37° C. for 10 minutes. Thereafter, the collagenase solution containing the tumor fragments was pipetted into finer tumor fragments, and the collagenase solution containing the tumor fragments was transferred to another 50 mL tube and cooled on ice. After cooling, an additional 5 mL of collagenase solution was added to the collagenase solution containing the tumor fragments, and the same procedure was repeated 5 times until no tumor fragments could be observed. Thereafter, the collagenase solution containing the tumor fragment was filtered through a cell strainer (mesh size: 70 μm, manufactured by BD Corporation), and the filtrate was centrifuged at 1200 rpm for 7 minutes. After centrifugation, the supernatant was removed, 20 ml of […] medium (serum-free) was added to the precipitate, and after suspension by inversion mixing, the precipitate was centrifuged at 1200 rpm for 7 minutes. After centrifugation, the supernatant was removed, and the precipitate was washed twice with PBS (−), and then 10 mL of PBS (−) was added and suspended to prepare a cancer cell suspension. The cancer cell suspension was subcutaneously administered to the ventral portion of the 12 mice so that the cancer cell dose per animal was 2.5×10^5 cells per 200 μL. Fourteen days after dosing, tumors were excised from 10 of the mice and cancer cell suspensions were prepared in the same manner as described above. The cancer cell suspensions were administered intracutaneously into the abdomen of the 108 mice so that the cancer cell dose per animal was 2.5×10^5 cells per 50 μL. After administration, mice were divided into six groups (n=6 in each group) as shown below at the time point when the tumor size of each mouse became about 5 mm in diameter (day 8 after administration). […]
The major and minor diameters of the tumors were measured using calipers on Days 3, 6 and 9 on the day of grouping as day 0, and the tumor volume was calculated based on these measurements. […]

human TLR4 = molecular target: T1, human TLR4 (Homo sapiens, UniProt O00206+Q9Y6Y9); assay: IL-8 production in Human Embryonic Kidney cells transfected with human TLR4 gene (Example 3); type: cell-based; conditions: HEK cells with human TLR4 gene; final 0.1-10,000 ng/mL; 24 hours; ELISA; FIG. 3
T1 construct: host or cells: Human Embryonic Kidney cells
T1 sequence (O00206 24-839): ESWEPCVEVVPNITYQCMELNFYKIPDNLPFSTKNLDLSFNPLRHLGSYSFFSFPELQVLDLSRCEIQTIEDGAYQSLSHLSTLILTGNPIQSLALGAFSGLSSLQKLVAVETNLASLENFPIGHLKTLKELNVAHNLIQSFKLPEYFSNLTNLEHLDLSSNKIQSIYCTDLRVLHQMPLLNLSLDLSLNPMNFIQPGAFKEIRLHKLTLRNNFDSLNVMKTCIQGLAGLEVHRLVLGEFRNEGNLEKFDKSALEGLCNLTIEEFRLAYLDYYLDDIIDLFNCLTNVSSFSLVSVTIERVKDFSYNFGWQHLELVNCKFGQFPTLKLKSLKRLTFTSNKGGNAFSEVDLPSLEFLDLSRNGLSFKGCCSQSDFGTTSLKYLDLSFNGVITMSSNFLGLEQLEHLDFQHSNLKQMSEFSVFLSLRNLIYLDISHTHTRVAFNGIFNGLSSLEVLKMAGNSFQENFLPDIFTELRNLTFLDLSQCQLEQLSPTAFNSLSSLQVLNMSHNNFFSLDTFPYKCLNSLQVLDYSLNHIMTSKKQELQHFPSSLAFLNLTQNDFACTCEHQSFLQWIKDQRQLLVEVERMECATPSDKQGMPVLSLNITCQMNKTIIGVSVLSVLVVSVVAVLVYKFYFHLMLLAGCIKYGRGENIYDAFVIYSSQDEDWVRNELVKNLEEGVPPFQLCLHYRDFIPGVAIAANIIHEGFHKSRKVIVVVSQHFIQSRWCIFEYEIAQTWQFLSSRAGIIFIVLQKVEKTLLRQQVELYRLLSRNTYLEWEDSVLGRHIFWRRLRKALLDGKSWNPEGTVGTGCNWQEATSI
T1 sequence (Q9Y6Y9 17-160 limits assumed): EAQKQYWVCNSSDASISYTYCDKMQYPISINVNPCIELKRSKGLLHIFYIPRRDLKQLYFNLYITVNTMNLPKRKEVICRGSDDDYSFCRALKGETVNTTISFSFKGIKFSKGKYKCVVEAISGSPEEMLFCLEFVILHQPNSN
Experimental: The purified product obtained in Example 1 (the mixture of the compound represented by Formula (A1), the compound represented by Formula (B1), the compound represented by Formula (A2), and the compound represented by Formula (B2)) was dissolved in water for injection to a concentration of 2 mg/mL and stored at 4° C., and the solution was heated at 37° C. for 5 minutes and sonicated at 37° C. for 1 minute. 10 μL of the sonicated solution was added to 990 μL of the culture solution having the following composition to thoroughly mix, and a solution having a concentration of 20,000 ng/mL was prepared, which was serially diluted using the culture solution to obtain six test solutions having concentrations of 2,000 ng/mL, 200 ng/mL, 20 ng/mL, 2 ng/mL, and 0.2 ng/mL. Since the six test solutions are diluted twice when added to the cells, the final concentrations of the purified products are 10,000 ng/mL, 1,000 ng/mL, 100 ng/mL, 10 ng/mL, 1 ng/mL, and 0.1 ng/mL, respectively.
The culture medium was added to Human Embryonic Kidney cells (manufactured by InvivoGen) into which human TLR4 gene had been transfected, and solution were prepared in which the concentration of the cell was 4×10^5 cells/mL. The solution was seeded in 96-well flat-bottomed plates in 100 μL portions, i.e., 4×10^4 cells/100 μL/well. After seeding, the culture was cultured at 37° C. in a 5% CO2 for 24 hours, then the culture supernatant was removed, and 100 μL of the above-described culture medium was added to each well. Next, 100 μL of the test solution was added to each well. After adding the test solution, the culture was incubated at 37° C. in a 5% CO2 for 24 hours.
Culture supernatants from the wells were collected and the concentrations of Interleukin-8 (IL-8) were measured using Human IL-8 ELISA MAX (registered trademark) Standard (Biolegend).

Compound	tumor volume versus saline group [1]	concentration of IL-8 in culture supernatant (human TLR4)
CCCCCC/C=C/CCCCCC(=O)OC(CCCCCCCCCCC)CC(=O)NC1C(OCC2OC(OP(=O)(O)O)C(NC(=O)CC(=O)CCCCCCCCCCC)C(OC(=O)CC(O)CCCCCCC)C2O)OC(COC2(C(=O)O)CC(OC3(C(=O)O)CC(OC4OC(C(=O)O)C(OC5OC(CO)C(O)C(O)C5O)C(O)C4O)C(O)C(C(O)CO)O3)C(OC3OC(CO)C(O)C(O)C3O)C(C(O)CO)O2)C(OP(=O)(O)O)C1OC(=O)CC(O)CCCCCCC (centres unmarked) [Formula (A2)]	equivalent results	Equivalent results were obtained
CCCCCC/C=C/CCCCCC(=O)OC(CCCCCCCCCCC)CC(=O)NC1C(OCC2OC(OP(=O)(O)O)C(NC(=O)CC(=O)CCCCCCCCCCC)C(OC(=O)CC(O)CCCCCCC)C2O)OC(COC2(C(=O)O)CC(OC3(C(=O)O)CC(OC4OC(C(=O)O)C(OC5OC(CO)C(O)C(O)C5O)C(O)C4O)C(O)C(C(O)CO)O3)C(OC3OC(COP(=O)(O)O)C(OC4OC(CO)C(O)C(O)C4O)C(O)C3O)C(C(O)CO)O2)C(OP(=O)(O)O)C1OC(=O)CC(O)CCCCCCC (centres unmarked) [Formula (A1)]	equivalent results	Equivalent results were obtained
CCCCCC/C=C/CCCCCC(=O)OC(CCCCCCCCCCC)CC(=O)NC1C(OCC2OC(OP(=O)(O)O)C(NC(=O)CC(=O)CCCCCCCCCCC)C(OC(=O)CC(O)CCCCCCC)C2O)OC(COC2(C(=O)O)CC(OC3(C(=O)O)CC(O)C(OC4OC(C(=O)O)C(OC5OC(CO)C(O)C(O)C5O)C(O)C4O)C(C(O)CO)O3)C(OC3OC(CO)C(O)C(O)C3O)C(C(O)CO)O2)C(OP(=O)(O)O)C1OC(=O)CC(O)CCCCCCC (centres unmarked) [Formula (B2)]	equivalent results	Equivalent results were obtained
CCCCCC/C=C/CCCCCC(=O)OC(CCCCCCCCCCC)CC(=O)NC1C(OCC2OC(OP(=O)(O)O)C(NC(=O)CC(=O)CCCCCCCCCCC)C(OC(=O)CC(O)CCCCCCC)C2O)OC(COC2(C(=O)O)CC(OC3(C(=O)O)CC(O)C(OC4OC(C(=O)O)C(OC5OC(CO)C(O)C(O)C5O)C(O)C4O)C(C(O)CO)O3)C(OC3OC(COP(=O)(O)O)C(OC4OC(CO)C(O)C(O)C4O)C(O)C3O)C(C(O)CO)O2)C(OP(=O)(O)O)C1OC(=O)CC(O)CCCCCCC (centres unmarked) [Formula (B1)]	equivalent results	Equivalent results were obtained

Reference: patent US20190177440A1, “COMPOUND OR SALT THEREOF, ANTI-INFLAMMATORY AGENT, ANTI-CANCER AGENT AGAINST LUNG CANCER, METHOD OF PRODUCING COMPOUND OR SALTS THEREOF, METHOD OF TREATING INFLAMMATORY DISEASES AND METHOD OF TREATING LUNG CANCER” (TFK CO., LTD., priority 2016, published 2019)
